# Results from patent US20060073589A1, “Rapid generation of activated mononuclear antigen presenting cells from monocytes” (priority 2002, published 2006).
# *1 amine or outer side, *2 acyl side, *3 side chain or, on linkers, in order; H or OH if unused. Where a SMILES comes first, the peptide text is derived from it. Bridges are numbered along the chain shown (N, C = ends). Roman numbers before positions name the chains, in order. [ ]: non-standard residue; d: D form. Actinocin(9to1) = Cc1c2oc3c(C)ccc(C(=O)[*:1])c3nc-2c(C(=O)[*:2])c(N)c1=O; NMeV = CN[C@H](C(=O)O)C(C)C; Sar = CNCC(=O)O
# Test system: CD83 expression on the cell membrane of monocytes
# Test: CD83 surface expression on monocytes cultured with metabolic inhibitors
# Type: cell-based, human
# Conditions: 4 h monocyte culture, inhibitor added at beginning; actinomycin D 100 ng/ml, cyclohexamide 100 μM, brefeldin A 5 μg/ml
# Experimental: The dotted line indicates the FACS profile of cells stained with isotype control mAb. The data are representative of three independent experiments.
# Cells were washed and resuspended in PBS containing 1% human serum and incubated with fluorochrome-conjugated mAbs for 30 min at 4° C. The following mAbs were used for immunofluorescent staining: anti-CD14, CD80, CD4, CD25, CD54, HLA-DR (Becton Dickinson, San Jose Calif.), CD40, CD86, CD83, CD1a, CD62L, HLA A-B-C, ManR, CD58, LFA-1, CD32 (Pharmingen, San Diego, Calif.), CD2 (clone SFCI3Pt2H9; Beckman Coulter, Fullerton, Calif.), CD33 (Immunotech). Samples were collected and analysed by using a FACSort (Becton Dickinson) and data analysis was performed by CellQuest software (Becton Dickinson). Cells were electronically gated according to light scatter properties, in order to exclude cell debris and contaminating lymphocytes.
# The CD83 surface expression in cells cultured in the presence of various metabolic inhibitors added at the beginning of the culture was examined.
row,Structure (SMILES),inhibition of up-regulation of CD83 expression on the cell membrane
1,C[C@@H]1C[C@@H]([C@H](O)CC2CC(=O)NC(=O)C2)C(=O)[C@@H](C)C1 [cyclohexamide],completely blocked
2,C[C@H]1CCC/C=C/[C@@H]2C[C@H](O)C[C@H]2[C@H](O)/C=C/C(=O)O1 [brefeldin A],completely blocked
3,"Cc1c2oc3c(C)ccc(C(=O)N[C@@H]4C(=O)N[C@H](C(C)C)C(=O)N5CCC[C@H]5C(=O)N(C)CC(=O)N(C)[C@@H](C(C)C)C(=O)O[C@@H]4C)c3nc-2c(C(=O)N[C@@H]2C(=O)N[C@H](C(C)C)C(=O)N3CCC[C@H]3C(=O)N(C)CC(=O)N(C)[C@@H](C(C)C)C(=O)O[C@@H]2C)c(N)c1=O [actinomycin D] (I: T[dV]P[Sar][NMeV] / II: T[dV]P[Sar][NMeV]; ester I:1-I:C, II:1-II:C; linker I:N-II:N via Actinocin(9to1))",not significantly inhibited
